{"source": "patent US20090149417A1", "about": "“Methods and compositions for the treatment of cancer using benzopyrone-type PARP inhibitors” (priority 2007, published 2009)", "key": {"L3.6 μl PC cells": {"test_system": "L3.6 μl PC cells", "assay": "Luciferase-expressing pancreatic cancer orthotopic nude mouse model", "type": "in vivo", "settings": "100 mg/kg/day 2/week×4 weeks", "procedure": "The therapeutic efficacy of IIIg on tumor growth and survival is evaluated in different luciferase-expressing pancreatic cancer orthotopic nude mouse models using an IVIS100 Imaging System, allowing a quantitative real time monitoring of tumor growth.\nMice are monitored daily for signs of toxicity including weight loss, diarrhea, inactivity, and general appearance."}, "COLO357FG and MiaPaCa-2": {"test_system": "COLO357FG and MiaPaCa-2", "assay": "Combination with oxaliplatin, BrdU proliferation, Chou and Talalay's method", "type": "cell-based, human", "settings": "combination of IIIg with oxaliplatin", "procedure": "This example provides the assessment of IIIg in combination with an anti-tumor agent, oxaliplatin, on the proliferation of two human pancreatic tumor cell lines, COLO357FG and MiaPaCa-2, in vitro. Cell proliferation is measured by BrdU incorporation as described in detail hereinabove. The experiments are performed according to Chou and Talalay's method (Chou T C, Talalay P. Quantitative analysis of dose-effect relationships: the combined effects of multiple drugs or enzyme inhibitors. Adv Enzyme Regul 1984, 22: 27-55)."}, "[1]": {"test_system": "human MX-1 breast carcinoma", "assay": "Human MX-1 breast carcinoma xenograft model in nude mice", "type": "in vivo", "procedure": "Female athymic nude mice (nu/nu, Harlan) are 10 weeks old, and have a body weight (BW) range of 18.1-27.0 g on D1 of the study. The animals are fed ad libitu water (reverse osmosis, 1 ppm Cl) and NIH 31 Modified and Irradiated Lab Diet® consisting of 18.0% crude protein, 5.0% crude fat, and 5.0% crude fiber. The mice are housed on irradiated ALPHA-dri® bed-o-cobs® Laboratory Animal Bedding in static microisolators on a 12-hour light cycle at 21-22° C. (70-72° F.) and 40-60% humidity. PRC specifically complies with the recommendations of the Guide for Care and Use of Laboratory Animals with respect to restraint, husbandry, surgical procedures, feed and fluid regulation, and veterinary care. […]\nThe human MX-1 breast carcinoma utilized in the present study is maintained in nude mice by serial engraftment. […] Tumors are monitored twice weekly and then daily as their volumes approached 80-120 mm^3. […] Tumor size, in mm3, is calculated from: […]\nTumors are calipered twice weekly for the duration of the study. […] The time to endpoint (TTE) for each mouse is calculated according to the following equation: […]\nwhere TTE is expressed in days, endpoint volume is in mm3, b is the intercept, and m is the slope of the line obtained by linear regression of a log-transformed tumor growth data set. […] The calculated TTE is usually less than the day on which an animal is euthanized for tumor size. […]"}}, "data": [{"smiles": "O=c1ccc2c(I)c([N+](=O)[O-])ccc2o1", "note": "[IIIg, 5-iodo-6-nitro-benzopyrone]", "values": [{"measurement": "Signs of toxicity", "setting": "L3.6 μl PC cells", "result": "without signs of toxicity"}, {"measurement": "Survival", "setting": "L3.6 μl PC cells", "result": "prolongs survival"}, {"measurement": "Tumor burden", "setting": "L3.6 μl PC cells", "result": "significantly reduces the tumor burden"}, {"measurement": "Synergy with oxaliplatin on proliferation", "setting": "COLO357FG and MiaPaCa-2", "result": "synergizes with oxaliplatin"}, {"measurement": "Survival of tumor-bearing animals", "setting": "[1]; biweekly intraperitoneal injection, 100 mg/kg", "result": "prolongs survival"}, {"measurement": "Tumor growth", "setting": "[1]; once-daily or twice-weekly administration", "result": "inhibits tumor growth"}]}]}
